Assay results reported in ChEMBL document CHEMBL5505996, “Discovery of novel osthole derivatives exerting anti-inflammatory effect on DSS-induced ulcerative colitis and LPS-induced acute lung injury in mice” (Eur J Med Chem, 2024).
In brackets after ≈: the same amount, converted by molar mass. Activity calls are given as the source filed them. The rule behind the calls is not given here.

Legend:
[1] = Acute toxicity in ICR mouse assessed as pathological changes in kidney at 500 mg/kg, po measured daily for 10 days by H and E staining based analysis; type: organism-based; settings: in vivo, 240 h, time 10 day
THP-1 [2] = assay: Antiinflammatory activity against LPS-induced PMA-differentiated human THP-1 cells assessed as inhibition of IL-6 release pretreated for 30 mins followed by LPS stimulation and measured after 24 hrs by ELISA; type: functional, cell-based
RAW264.7 [3] = assay: Antiinflammatory activity against LPS-induced mouse RAW264.7 cells assessed as inhibition of IL-6 release pretreated for 30 mins followed by LPS stimulation and measured after 24 hrs by ELISA; type: functional, cell-based
Mus musculus [4] = assay: Antiinflammatory activity against C57BL/6 mouse model of DSS induced ulcerative colitis assessed as reduction in inflammatory cytokines infiltration in intestine at 20 mg/kg, po administered daily for 10 days by immunohistochemical staining based analysis; type: functional, organism-based; settings: time 10.0 day
Mus musculus [5] = assay: (§1) Antiinflammatory activity against C57BL/6 mouse model of LPS induced acute lung injury assessed as reduction in IL-6 level in BALF at 20 mg/kg, po administered every 12 hrs for 3 times followed by LPS stimulation for 6 hrs starting from 30 mins post last dose by ELISA; type: functional, organism-based; settings: time 42.5 hrs
[6] = AUC (0 to t) in male Sprague-Dawley rat at 10 mg/kg, po by UPLC-MS/MS analysis; type: ADME, organism-based; settings: in vivo
Mus musculus [7] = assay: Antiinflammatory activity against C57BL/6 mouse model of DSS induced ulcerative colitis assessed as protection against crypt necrosis at 20 mg/kg, po administered daily for 10 days by H and E staining based analysis; type: functional, organism-based; settings: time 10.0 day
J774.A1 [8] = assay: Inhibition of MAPK signaling pathway in LPS-stimulated mouse J774.A1 cells assessed as reduction in ERK1/2 phosphorylation at 10 uM pretreated for 2 hrs followed by LPS stimulation and measured after 30 mins by Western blot analysis; type: cell-based; settings: time 2.5 hrs
Mus musculus [9] = assay: Antiinflammatory activity against C57BL/6 mouse model of DSS induced ulcerative colitis assessed as reduction in IL-6 level in serum at 20 mg/kg, po administered daily for 10 days; type: functional, organism-based; settings: time 10.0 day
[10] = Acute toxicity in ICR mouse assessed as pathological changes in lung at 500 mg/kg, po measured daily for 10 days by H and E staining based analysis; type: organism-based; settings: in vivo, 240 h, time 10 day
Mus musculus [11] = assay: Antiinflammatory activity against C57BL/6 mouse model of DSS induced ulcerative colitis assessed as reversal of shortened intestinal length due to fecal obstruction at 20 mg/kg, po administered daily for 10 days; type: functional, organism-based; settings: time 10.0 day
J774.A1 [12] = assay: Inhibition of NFkappaB signaling pathway in LPS-induced mouse J774.A1 cells assessed as reduction in IkappaBalpha degradation pretreated for 2 hrs followed by LPS stimulation and measured after 30 mins by Western blot analysis; type: cell-based; settings: time 2.5 hrs
[13] = Half life in male Sprague-Dawley rat at 10 mg/kg, po by UPLC-MS/MS analysis; type: ADME, organism-based; settings: in vivo
THP-1 [14] = assay: Antiinflammatory activity against LPS-induced PMA-differentiated human THP-1 cells assessed as inhibition of TNF-alpha release pretreated for 30 mins followed by LPS stimulation and measured after 24 hrs by ELISA; type: functional, cell-based
Mus musculus [15] = assay: as §1, with “pulmonary edema by measuring reduction” for “IL-6 level”, “lung wet/dry ratio” for “BALF”, “dose” for “dose by ELISA”; type: functional, organism-based; settings: time 42.5 hrs
RAW264.7 [16] = assay: Antiinflammatory activity against LPS-induced mouse RAW264.7 cells assessed as inhibition of TNF-alpha release pretreated for 30 mins followed by LPS stimulation and measured after 24 hrs by ELISA; type: functional, cell-based
J774.A1 [17] = assay: Antiinflammatory activity against LPS-induced mouse J774.A1 cells assessed as inhibition of TNF-alpha release pretreated for 30 mins followed by LPS stimulation and measured after 24 hrs by ELISA; type: functional, cell-based
Mus musculus [18] = assay: (§2) Antiinflammatory activity against C57BL/6 mouse model of LPS induced acute lung injury assessed as reduction in interstitial edema at 20 mg/kg, po administered every 12 hrs for 3 times followed by LPS stimulation for 6 hrs starting from 30 mins post last dose by H and E staining based analysis; type: functional, organism-based; settings: time 42.5 hrs
Mus musculus [19] = assay: Antiinflammatory activity against C57BL/6 mouse model of DSS induced ulcerative colitis assessed as reversal of splenomegaly at 20 mg/kg, po administered daily for 10 days; type: functional, organism-based; settings: time 10.0 day
Mus musculus [20] = assay: as §2, with “inflammatory cell infiltration” for “interstitial edema”; type: functional, organism-based; settings: time 42.5 hrs
J774.A1 [21] = assay: Inhibition of MAPK signaling pathway in LPS-stimulated mouse J774.A1 cells assessed as reduction in p38 phosphorylation at 10 uM pretreated for 2 hrs followed by LPS stimulation and measured after 30 mins by Western blot analysis; type: cell-based; settings: time 2.5 hrs
[22] = Tmax in male Sprague-Dawley rat at 10 mg/kg, po by UPLC-MS/MS analysis; type: ADME, organism-based; settings: in vivo
[23] = Acute toxicity in ICR mouse assessed as pathological changes in liver at 500 mg/kg, po measured daily for 10 days by H and E staining based analysis; type: organism-based; settings: in vivo, 240 h, time 10 day
Mus musculus [24] = assay: Antiinflammatory activity against C57BL/6 mouse model of DSS induced ulcerative colitis assessed as reversal of splenomegaly at 100 mg/kg, po administered daily for 10 days; type: functional, organism-based; settings: time 10.0 day
Mus musculus [25] = assay: as §2, with “thickening of alveolar septa” for “interstitial edema”; type: functional, organism-based; settings: time 42.5 hrs
Mus musculus [26] = assay: Antiinflammatory activity against C57BL/6 mouse model of LPS induced acute lung injury assessed as reduction in IL-6 level in serum at 20 mg/kg, po administered every 12 hrs for 3 times followed by LPS stimulation for 6 hrs starting from 30 mins post last dose by ELISA; type: functional, organism-based; settings: time 42.5 hrs
[27] = target: Mitogen-activated protein kinase kinase kinase 7 (Homo sapiens) (UniProt O43318); assay: Inhibition of TAK1 (unknown origin) at 10 uM relative to control
J774.A1 [28] = assay: Inhibition of NFkappaB signaling pathway in LPS-induced mouse J774.A1 cells assessed as reduction in p65 phosphorylation pretreated for 2 hrs followed by LPS stimulation and measured after 30 mins by Western blot analysis; type: cell-based; settings: time 2.5 hrs
[29] = Acute toxicity in ICR mouse assessed as pathological changes in heart at 500 mg/kg, po measured daily for 10 days by H and E staining based analysis; type: organism-based; settings: in vivo, 240 h, time 10 day
[30] = Aqueous solubility of compound in phosphate buffer at pH 7.4 measured after 24 hrs by HPLC analysis; type: physicochemical
[31] = Acute toxicity in ICR mouse assessed as effect on daily activities at 500 mg/kg, po measured daily for 10 days; type: organism-based; settings: in vivo, 240 h, time 10 day
J774.A1 [32] = assay: Antiinflammatory activity against LPS-induced mouse J774.A1 cells assessed as inhibition of IL-6 release pretreated for 30 mins followed by LPS stimulation and measured after 24 hrs by ELISA; type: functional, cell-based
[33] = Acute toxicity in ICR mouse assessed as reduction in body weight at 500 mg/kg, po measured daily for 10 days; type: organism-based; settings: in vivo, 240 h, time 10 day
Mus musculus [34] = assay: as §1, with “lung” for “BALF”, “immunohistochemical staining based analysis” for “ELISA”; type: functional, organism-based; settings: time 42.5 hrs

Sequence of Mitogen-activated protein kinase kinase kinase 7 (Homo sapiens) (O43318 whole entry, looked up): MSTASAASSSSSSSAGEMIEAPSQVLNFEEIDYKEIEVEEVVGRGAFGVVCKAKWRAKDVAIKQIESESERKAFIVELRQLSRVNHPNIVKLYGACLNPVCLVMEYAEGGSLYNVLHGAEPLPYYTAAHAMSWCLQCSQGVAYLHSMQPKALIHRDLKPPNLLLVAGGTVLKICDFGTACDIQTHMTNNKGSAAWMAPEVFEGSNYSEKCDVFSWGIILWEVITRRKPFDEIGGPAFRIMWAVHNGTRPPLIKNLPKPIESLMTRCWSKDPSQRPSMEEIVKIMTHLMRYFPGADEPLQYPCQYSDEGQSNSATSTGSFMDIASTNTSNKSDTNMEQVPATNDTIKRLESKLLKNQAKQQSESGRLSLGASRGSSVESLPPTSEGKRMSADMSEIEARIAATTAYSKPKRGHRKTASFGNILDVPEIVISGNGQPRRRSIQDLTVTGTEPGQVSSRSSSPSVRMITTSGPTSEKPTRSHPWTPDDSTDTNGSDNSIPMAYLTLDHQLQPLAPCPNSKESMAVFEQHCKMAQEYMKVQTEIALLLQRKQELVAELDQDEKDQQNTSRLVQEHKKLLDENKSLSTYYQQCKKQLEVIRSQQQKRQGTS

SMILES: CC(C)=CCc1c(OCCCCNCCN2CCOCC2)ccc2ccc(=O)oc12
- Activity [1]: Non-Toxic
- IC50 (THP-1 [2]): 10.6 µM
- IC50 (RAW264.7 [3]): 4.57 µM
- Activity (Mus musculus [4]): Active
- Activity (Mus musculus [5]): Active
- AUC(0-t) [6]: 1120 ng·h/mL
- Activity (Mus musculus [7]): Active
- inhibition (J774.A1 [8]): inactive
- Activity (Mus musculus [9]): Active
- Activity [10]: Non-Toxic
- Activity (Mus musculus [11]): Active
- inhibition (J774.A1 [12]): inactive
- half-life [13]: 10.7 h
- IC50 (THP-1 [14]): 27.4 µM
- Activity (Mus musculus [15]): Active
- IC50 (RAW264.7 [16]): 29.7 µM
- IC50 (J774.A1 [17]): 18.1 µM
- Activity (Mus musculus [18]): Active
- Activity (Mus musculus [19]): Active
- Activity (Mus musculus [20]): Active
- inhibition (J774.A1 [21]): Active
- Tmax [22]: 3.33 h
- Activity [23]: Non-Toxic
- Activity (Mus musculus [24]): Active
- Activity (Mus musculus [25]): Active
- Activity (Mus musculus [26]): Active
- inhibition [27]: 5.23%
- inhibition (J774.A1 [28]): inactive
- Activity [29]: Non-Toxic
- solubility at 24 h [30]: 340 µg/mL (≈ 820 µM)
- Activity [31]: Non-Toxic
- IC50 (J774.A1 [32]): 4.23 µM
- Activity (J774.A1 [32]; time 24.5 hrs): Dose-Dependent Effect
- Activity [33]: Non-Toxic
- Activity (Mus musculus [34]): Active
